Test system: patients with metastatic NSCLC progressing on or after platinum therapy
Assay: LUNAR phase 3 randomized study: overall survival, progression-free survival, radiological response
Description: LUNAR was a prospective, phase 3, randomized, open-label, parallel study (EF-24; NCT02973789) of TTFields (150 kHz) therapy concomitant with standard-of-care systemic therapy (docetaxel or investigator's choice immune checkpoint inhibitor) in patients with metastatic NSCLC progressing on or after platinum therapy. LUNAR was conducted at 124 sites across 17 countries in North America, Europe, and Asia (Table Si) between February 2017 and November 2021.
Eligible participants were adults (≥22 years of age) with a histological or cytological diagnosis of metastatic NSCLC that had shown radiological progression while on or after platinum-based systemic therapy (prior ICI permitted). Other than maintenance therapy, the most recent systemic therapy administered for advanced NSCLC was platinum-therapy. […]
Eligible patients were randomly assigned 1:1 (within 28 days of providing informed consent) to receive TTFields therapy to the thorax concomitant with investigator's choice of standard therapy (an immune checkpoint inhibitor [nivolumab, pembrolizumab, or atezolizumab] or docetaxel). Randomization was determined centrally using variable blocked randomization and an IxRS system, and stratified by tumor histology, treatment (docetaxel or an immune checkpoint inhibitor), and region (North America, Western Europe/Israel, and Eastern Europe). […]

With `CC(=O)O[C@@]12CO[C@@H]1C[C@H](O)[C@@]1(C)C(=O)[C@H](O)C3=C(C)[C@@H](OC(=O)[C@H](O)[C@@H](NC(=O)OC(C)(C)C)c4ccccc4)C[C@@](O)([C@@H](OC(=O)c4ccccc4)[C@H]21)C3(C)C` [Docetaxel, docetaxel] the one-year survival rate (docetaxel subgroup) was 39.4% and the median overall survival (subgroup receiving docetaxel) was 8.9 months.

— US20240399142A1, “Methods Of Using Alternating Electric Fields And Checkpoint Inhibitors” (NOVOCURE GMBH, priority 2023, published 2024)
